Results on one molecule are retold here after US20250170154A1 (GreenStone Biosciences, Inc., priority 2023, published 2025).

The nature of data set [1]: Thermodynamic solubility in FaSSIF. Format: physicochemical. The following applies: thermodynamic from solid, room temperature, 24 hours shaking. The protocol:
After shaking, the samples were centrifuged at 25° C. for 20 minutes at 4000 rpm. Filtrates were prepared using the Whatman Mini-UniPrep Syringeless Filter Device (PTFE filter media with polypropylene housing, pore size 0.45 μm) from Cytiva, and dilutions were performed as required. Quantification of all samples was carried out using an LC-UV system.

A short description of data set [2]: Intestinal stability, mouse intestinal S9. The conditions noted are these: intestinal S9 fraction. Format: in vitro ADME. As to the method:
(§1) The stability of compounds 1 and 2, and the control compound 7-hydroxycoumarin, were measured using human, rat, and mouse intestinal S9 fractions (Xenotech). Test compound working solutions were prepared by diluting 5 μL of 10 mM stock solutions in DMSO with 495 μL AN. S9 solutions were prepared by diluting the obtained S9 solutions to 1.0 mg/mL in 100 mM potassium phosphate buffer at pH 7.4 containing 10 mM D-saccharic acid-1,4-lactone. An Apricot automation workstation was used to add 100 μL/well of S9 solution to all reaction plates (Blank, T0, T5, T15, T30, T45, T60 and NCF60); 2 μL/well of compound working solutions were added to all 96-well reaction plates except the blank (T0, T5, T15, T30, T45, T60, and NCF60); 600 μL/well of stop solution (4° C. ACN containing 200 ng/mL tolbutamide and 200 ng/mL labetalol as internal standards) was added to the T0 reaction plate; all plates were pre-incubated at 37° C. for 10 minutes; a cofactor regenerating system (98 μL/well) was added, excluding the NCF60 plate which instead received 98 μL/well of 100 mM potassium phosphate buffer. All plates were then incubated at 37° C. To terminate reactions, 600 μL/well of stop solution was applied at specific end time points. After sealing and a 10-minute shaking, plates were centrifuged at 4000 rpm and 4° C. for 20 minutes. Concurrently, 300 μL/well of HPLC grade water was loaded onto eight new 96-well bioanalysis plates. Post-centrifugation, 100 μL supernatant from each reaction plate was transferred to its corresponding bioanalysis plate, shaken for 10 minutes, and then subjected to LC-MS/MS analysis (Shimadzu LC-40D LC system coupled to a Sciex Qtrap 6500 Plus mass spectrometer, using both positive and negative ion modes).

A short description of data set [3]: Stability in simulated gastric fluid (SGF). Format: in vitro ADME. The following applies: SGF pH 1.2, 37° C., 2 μM. The protocol: The stability of compounds 1 to 4, and the control compound omeprazole, were measured in simulated gastric fluid (SGF: 0.2% w/v sodium chloride, 0.7% v/v hydrochloric acid, and 0.32% w/v pepsin in deionized water, pH 1.2±0.05). Stock solutions of the compounds (10 mM) were diluted to 200 μM in DMSO, then duplicate 2 μL aliquots added to 96-well plates for time points 0, 1, 2, 6, and 24 hours. SGF (198 μL) was added to all wells except those for time 0, to give a starting compound concentration of 2 μM; and the samples were incubated at 37° C. with agitation at 600 rpm for the prescribed times. After incubation, 200 μL of each sample was extracted and mixed with 400 μL cold ACN containing 200 ng/mL tolbutamide and labetalol as internal standards. The samples were centrifuged at […] for 20 minutes at 4° C., and the supernatants (60 μL) each diluted with purified water (180 μL) for LC/MS/MS analysis. The percentage of the test compound remaining at each time point was calculated based on the ratio of the peak area of the analyte to the internal standards.

Data set [4] in a line: Intestinal stability, human intestinal S9. Format: in vitro ADME. The protocol:
as §1

The next data set relates to 16 month-old mice. Description: 16 month-old mice with 7-day osmotic pumps. Format: in vivo, mouse. The protocol: Three groups of 16 month-old mice were implanted with 7-day osmotic pumps dispensing vehicle, 0.24 mg/Kg/day, and 2.4 mg/Kg/day of compound 2. All three groups of animals lost ˜1% of body weight over the 7 days.
The test system of data set [5] is mice with cerulein-induced acute edematous pancreatitis. Description: Cerulein model of acute edematous pancreatitis. Format: in vivo, mouse. The following applies: 100 mg/Kg by gavage 30 minutes after first and fourth cerulein injections; initial findings. The protocol:
Using the cerulein model, acute edematous pancreatitis was induced in two test groups of mice by eight hourly intraperitoneal injections of 50 μg/Kg cerulein, with control group mice receiving injections of physiological saline. Compound 2, at 100 mg/Kg, was administered to one of the cerulein groups by gavage 30 minutes after the first and fourth cerulein injections. Mice were sacrificed one hour after the last injection and tissues were collected for histological analysis. […] Recurrent acute pancreatitis (RAP) and chronic pancreatitis (CP) were induced by repetitive cerulein injections every third day over a span of 14 days (RAP) or 6 weeks (CP). Compound 2 was administered daily at 50 mg/Kg on the last 10 consecutive days for RAP and at 100 mg/Kg on the last 4 weeks for CP, with vehicle controls. Mice were sacrificed 1 day after the last cerulein injection and tissues were collected for histological analysis. In the CP model, the cerulein injections induced extensive acinar cell damage.

Another data set deals with LMNA^H222P/H222P mouse. The data set is described as follows: Dilated cardiomyopathy model, echocardiography. Format: in vivo. The following applies: continuous 4 weeks by osmotic pumps. The protocol:
The LMNA^H222P/H222P mouse is a well-established model for studying dilated cardiomyopathy and heart failure, with cardiac dysfunction typically beginning to manifest at around 16 weeks of age. In this study, 16-week-old LMNA^H222P/H222P mice underwent baseline echocardiography prior to treatment. Compound 2 was then administered continuously for 4 weeks using osmotic pumps, with DMSO as the vehicle control. At the end of the treatment period, echocardiography was performed again to assess the impact of compound 2 on cardiac function compared to the control group. […] In a FLNC knockout model using the Myh6-Cre:FLNC^wt/F mouse, 16-week-old mice underwent baseline echocardiography, were treated with compound 2 at 50 mg/Kg/day or vehicle by gavage for 6 weeks, and underwent echocardiography to assess the change in cardiac function. […] The genistein phosphate derivatives of this invention are therefore expected to be useful for the treatment of subjects with dilated cardiomyopathy.

The mark [6] stands for this setting: 0.24 and 2.4 mg/Kg/day, 7-day osmotic pumps.
The mark [7] stands for this setting: increases seen in control group.

Each structure is given as a SMILES string. Like-named read-outs stand apart in the source and are kept apart here.

`O=c1c(-c2ccc(O)cc2)coc2cc(OCOP(=O)(O)O)cc(O)c12` [Compound 2, ((5-Hydroxy-3-(4-hydroxyphenyl)-4-oxo-4H-chromen-7-yl)oxy)methyl dihydrogen phosphate]: the solubility at 24 h in data set [1] (read-out: Solubility) is 7.82 mM; in data set [1] (read-out: Solubility (μg/mL)), 2970 µg/mL. Also, the half-life (as a rule, the time needed for the level to fall by half in the phase considered) at 1 µM was 68.1 min in data set [2] (pH 7.4) and 26.8 min in data set [4] (intestinal S9 fraction, pH 7.4). For the same molecule, the microsomal CLint at 1 µM in data set [2] (pH 7.4, read-out: intrinsic clearance rate) came out at 20.3 µL/min/mg; in data set [4] (intestinal S9 fraction, pH 7.4, read-out: intrinsic clearance rate) it was 51.7 µL/min/mg. The “Percentage remaining at time: 1 hour” value in data set [3] (1 hour) is reported as 100%. Besides, the “Percentage remaining at time: 2 hours” value in data set [3] (2 hours) is recorded as 104%. In data set [3] (6 hours), the “Percentage remaining at time: 6 hours” value is on record as 116%. Moreover, the “Percentage remaining at time: 24 hours” value in data set [3] (24 hours) is 113%. Also, the “Percentage remaining at time: 0” value in data set [3] (time 0) is 100%. In addition, the “normalized control factor remaining” value in data set [4] is reported as 56.6%. In addition, the “fasting blood glucose relative to the control group” value with 16 month-old mice (2.4 mg/Kg/day group) is listed as “significant decrease”; with 16 month-old mice (both treatment groups, 0.24 and 2.4 mg/Kg/day, 7-day osmotic pumps), “lowered”. For the same molecule, the “body weight lost over the 7 days” value in the data set on 16 month-old mice (0.24 and 2.4 mg/Kg/day groups (same as vehicle group)) was about 1%. For the same molecule, the IL-13 blood levels result in the data set with 16 month-old mice (setting [6]) is on record as “reduced in a dose-dependent manner”. In addition, the Leptin blood levels entry with 16 month-old mice (setting [6]) is “reduced in a dose-dependent manner”. In data set [5], the “acute edematous pancreatitis marked by necrosis, inflammation and edema in the pancreas (histology)” value was “efficacious in reversing”. In the data set with LMNA^H222P/H222P mouse (vs DMSO control group), the ejection fraction result is listed as “reduced the decrease”. Further, the fractional shortening entry in the data set with LMNA^H222P/H222P mouse (vs DMSO control group) is “reduced the decrease”. Further, the left ventricular diameter result with LMNA^H222P/H222P mouse (setting [7]) was “reduced”. Besides, the left ventricular volume result with LMNA^H222P/H222P mouse (setting [7]) is on record as “reduced”.
